Biological target: Cav3.2 (Homo sapiens, UniProt O95180)
Experiment: Calcium flux FLIPR assay, HEK293 cells recombinantly expressing Cav3.2
Type: cell-based
Conditions: Cav3.2-channel, Ca2+ entry stimulated by 10 mM CaCl2
Procedure, shortened: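 Fluo-4-loaded HEK293 cells stably expressing Cav3.2, seeded overnight at 37 °C; compounds diluted in TEAC buffer (pH 7.2) and preincubated 3 min before Ca2+ entry triggered with CaCl2 at 10 mM final. Area under FLIPR fluorescence trace fitted sigmoidally; IC50 relative to vehicle signal.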

Sequence of Cav3.2 (O95180 whole entry, looked up): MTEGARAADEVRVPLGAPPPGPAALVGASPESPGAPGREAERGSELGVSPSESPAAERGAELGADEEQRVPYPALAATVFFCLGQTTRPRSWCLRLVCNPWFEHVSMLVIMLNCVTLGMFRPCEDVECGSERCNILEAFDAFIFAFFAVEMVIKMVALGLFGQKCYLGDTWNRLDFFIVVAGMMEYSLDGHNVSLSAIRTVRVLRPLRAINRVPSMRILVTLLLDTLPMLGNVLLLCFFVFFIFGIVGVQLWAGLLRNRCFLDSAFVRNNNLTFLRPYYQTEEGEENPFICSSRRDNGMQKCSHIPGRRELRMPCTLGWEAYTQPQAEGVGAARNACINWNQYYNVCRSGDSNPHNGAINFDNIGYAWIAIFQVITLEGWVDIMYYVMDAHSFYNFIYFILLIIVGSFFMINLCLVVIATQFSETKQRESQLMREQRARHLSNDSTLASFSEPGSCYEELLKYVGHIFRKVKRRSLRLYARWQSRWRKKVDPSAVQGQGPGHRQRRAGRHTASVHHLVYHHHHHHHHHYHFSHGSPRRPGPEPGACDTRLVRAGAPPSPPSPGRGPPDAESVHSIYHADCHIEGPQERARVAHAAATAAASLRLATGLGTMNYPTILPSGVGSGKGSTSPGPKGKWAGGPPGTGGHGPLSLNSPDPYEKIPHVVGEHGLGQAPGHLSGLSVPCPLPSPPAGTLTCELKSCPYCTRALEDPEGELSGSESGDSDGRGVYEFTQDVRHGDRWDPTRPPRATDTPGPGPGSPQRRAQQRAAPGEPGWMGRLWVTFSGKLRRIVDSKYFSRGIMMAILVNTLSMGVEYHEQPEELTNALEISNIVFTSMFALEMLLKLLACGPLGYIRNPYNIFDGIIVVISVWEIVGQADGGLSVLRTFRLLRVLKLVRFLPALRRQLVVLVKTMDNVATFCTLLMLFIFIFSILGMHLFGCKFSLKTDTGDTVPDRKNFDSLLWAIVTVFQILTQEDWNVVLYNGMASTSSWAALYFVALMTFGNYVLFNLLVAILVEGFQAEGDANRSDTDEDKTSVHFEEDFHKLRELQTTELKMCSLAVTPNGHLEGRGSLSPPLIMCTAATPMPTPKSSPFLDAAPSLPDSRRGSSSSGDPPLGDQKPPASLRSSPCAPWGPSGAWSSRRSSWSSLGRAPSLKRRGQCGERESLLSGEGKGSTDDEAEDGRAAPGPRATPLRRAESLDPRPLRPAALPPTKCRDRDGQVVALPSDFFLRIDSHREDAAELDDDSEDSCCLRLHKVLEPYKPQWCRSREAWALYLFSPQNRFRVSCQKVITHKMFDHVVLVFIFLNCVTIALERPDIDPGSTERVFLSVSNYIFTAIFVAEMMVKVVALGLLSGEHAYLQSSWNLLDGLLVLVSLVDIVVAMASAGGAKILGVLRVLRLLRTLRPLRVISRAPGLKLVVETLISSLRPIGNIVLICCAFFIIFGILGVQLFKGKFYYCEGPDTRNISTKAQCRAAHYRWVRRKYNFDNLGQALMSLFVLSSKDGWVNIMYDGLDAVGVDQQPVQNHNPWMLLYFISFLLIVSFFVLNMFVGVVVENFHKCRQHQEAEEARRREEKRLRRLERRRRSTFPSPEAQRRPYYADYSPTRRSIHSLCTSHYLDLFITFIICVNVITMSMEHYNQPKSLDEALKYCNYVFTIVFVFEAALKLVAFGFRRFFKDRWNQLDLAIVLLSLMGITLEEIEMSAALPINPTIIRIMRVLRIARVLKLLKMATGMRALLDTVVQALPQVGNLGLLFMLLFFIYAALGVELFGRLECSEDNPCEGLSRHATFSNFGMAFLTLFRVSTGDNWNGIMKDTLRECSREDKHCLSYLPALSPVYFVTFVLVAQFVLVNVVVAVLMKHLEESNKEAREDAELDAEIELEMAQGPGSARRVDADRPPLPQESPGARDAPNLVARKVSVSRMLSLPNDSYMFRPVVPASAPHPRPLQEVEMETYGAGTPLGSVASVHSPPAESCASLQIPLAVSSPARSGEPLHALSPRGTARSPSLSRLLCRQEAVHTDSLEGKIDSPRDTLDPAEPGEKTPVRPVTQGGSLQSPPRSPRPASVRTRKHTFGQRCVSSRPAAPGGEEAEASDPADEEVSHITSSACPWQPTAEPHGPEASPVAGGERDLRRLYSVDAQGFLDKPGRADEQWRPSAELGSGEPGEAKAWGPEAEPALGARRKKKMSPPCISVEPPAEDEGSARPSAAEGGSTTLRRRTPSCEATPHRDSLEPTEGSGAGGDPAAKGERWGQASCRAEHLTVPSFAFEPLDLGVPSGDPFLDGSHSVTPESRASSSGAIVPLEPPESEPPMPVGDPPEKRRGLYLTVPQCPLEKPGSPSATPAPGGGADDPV

In order of falling IC50:
1. COc1ccc(Cn2ncc(NC(=O)Cc3ccc4c(cnn4C)c3)n2)cc1C#N [Example 208, N-[2-(3-Cyano-4-methoxy-benzyl)-2H-[1,2,3]triazol-4-yl]-2-(1-methyl-1H-indazol-5-yl)-acetamide]  0.6 µM
2. COc1cc(Cn2ncc(NC(=O)Cc3ccc(C(C)(C)C)cc3)n2)cc(F)c1F [Example 218, 2-(4-tert-Butyl-phenyl)-N-[2-(3,4-difluoro-5-methoxy-benzyl)-2H-[1,2,3]triazol-4-yl]-acetamide]  0.59 µM
3. Cn1ncc2cc(CC(=O)Nc3cnn(Cc4ccc(F)c(C#N)c4)n3)ccc21 [Example 173, N-[2-(3-Cyano-4-fluoro-benzyl)-2H-[1,2,3]triazol-4-yl]-2-(1-methyl-1H-indazol-5-yl)-acetamide]  0.15 µM
4. COc1c(F)cc(Cn2ncc(NC(=O)Cc3ccc(C4(C(F)(F)F)CC4)cc3)n2)cc1F [Example 145, N-[2-(3,5-Difluoro-4-methoxy-benzyl)-2H-[1,2,3]triazol-4-yl]-2-[4-(1-trifluoromethyl-cyclopropyl)-phenyl]-acetamide]  0.12 µM
5. COc1ccc(Cn2ncc(NC(=O)Cc3ccc(OC4CC(F)(F)C4)cc3)n2)cc1C#N [Example 223, N-[2-(3-Cyano-4-methoxy-benzyl)-2H-[1,2,3]triazol-4-yl]-2-[4-(3,3-difluoro-cyclobutoxy)-phenyl]-acetamide]  0.12 µM
6. COc1ccc(Cn2ncc(NC(=O)Cc3ccc(N4CCCC4)nc3)n2)cc1 [Example 62, N-[2-(4-Methoxy-benzyl)-2H-[1,2,3]triazol-4-yl]-2-(6-pyrrolidin-1-yl-pyridin-3-yl)-acetamide]  0.12 µM
7. O=C(Cc1ccc2[nH]nc(C3CC3)c2c1)Nc1cnn(Cc2ccc(F)c(F)c2)n1 [Example 29, 2-(3-Cyclopropyl-1H-indazol-5-yl)-N-[2-(3,4-difluoro-benzyl)-2H-[1,2,3]triazol-4-yl]-acetamide]  0.12 µM
8. COc1c(F)cc(Cn2ncc(NC(=O)Cc3ccc(OCC4COC4)cc3)n2)cc1F [Example 141, N-[2-(3,5-Difluoro-4-methoxy-benzyl)-2H-[1,2,3]triazol-4-yl]-2-[4-(oxetan-3-ylmethoxy)-phenyl]-acetamide]  0.086 µM
9. CCCCc1n[nH]c2ccc(CC(=O)Nc3cnn(Cc4ccc(F)c(F)c4)n3)cc12 [Example 32, 2-(3-Butyl-1H-indazol-5-yl)-N-[2-(3,4-difluoro-benzyl)-2H-[1,2,3]triazol-4-yl]-acetamide]  0.074 µM
10. Cc1ccc(Cn2ncc(NC(=O)Cc3ccc(C(C)C)cc3)n2)cc1 [Example 24, 2-(4-Isopropyl-phenyl)-N-[2-(4-methyl-benzyl)-2H-[1,2,3]triazol-4-yl]-acetamide]  0.037 µM
11. Cc1nn(C)c2ccc(CC(=O)Nc3cnn(Cc4ccc(C#N)c(F)c4)n3)cc12 [Example 177, N-[2-(4-Cyano-3-fluoro-benzyl)-2H-[1,2,3]triazol-4-yl]-2-(1,3-dimethyl-1H-indazol-5-yl)-acetamide]  0.033 µM
12. CCCn1ncc2cc(CC(=O)Nc3cnn(Cc4ccc(F)c(F)c4)n3)ccc21 [Example 34, N-[2-(3,4-Difluoro-benzyl)-2H-[1,2,3]triazol-4-yl]-2-(1-propyl-1H-indazol-5-yl)-acetamide]  0.018 µM
13. CN(C)c1ccc(CC(=O)Nc2cnn(Cc3ccc(F)cc3)n2)cc1 [Example 2, 2-(4-Dimethylamino-phenyl)-N-[2-(4-fluoro-benzyl)-2H-[1,2,3]triazol-4-yl]-acetamide]  0.017 µM
14. COc1c(F)cc(Cn2ncc(NC(=O)Cc3ccc(N4CCC(F)(F)C4)nc3)n2)cc1F [Example 147, N-[2-(3,5-Difluoro-4-methoxy-benzyl)-2H-[1,2,3]triazol-4-yl]-2-[6-(3,3-difluoro-pyrrolidin-1-yl)-pyridin-3-yl]-acetamide]  0.013 µM
15. Cn1ccc2cc(CC(=O)Nc3cnn(Cc4ccc(F)cc4)n3)ccc21 [Example 52, N-[2-(4-Fluoro-benzyl)-2H-[1,2,3]triazol-4-yl]-2-(1-methyl-1H-indol-5-yl)-acetamide]  0.012 µM

Source: patent US10246426B2, “Triazole compounds as T-type calcium channel blockers” (IDORSIA PHARMACEUTICALS LTD, priority 2014, dated 2019)
